What was measured:
Assay type in all cases: cell-based
[1] = test system: PC3; assay: Cancer cell panel, cell viability (resazurin): Prostate, PC3; conditions: 72 hours, labelled drug combined with Example 3
[2] = test system: LnCap; assay: Cancer cell panel, cell viability (resazurin): Prostate, LnCap; conditions: 72 hours, labelled drug combined with Example 3
[3] = test system: SKOV-3; assay: Cancer cell panel, cell viability (resazurin): Ovarian, SKOV-3; conditions: SKOV-3 (Ovarian), 72 hours; labelled drug combined with Example 3
[4] = test system: A2780; assay: Cancer cell panel, cell viability (resazurin): Ovarian, A2780; conditions: 72 hours, labelled drug combined with Example 3
[5] = test system: Caov-3; assay: Cancer cell panel, cell viability (resazurin): Ovarian, Caov-3; conditions: Caov-3 (Ovarian), 72 hours; labelled drug combined with Example 3
[6] = test system: Mia-Paca-2; assay: Cancer cell panel, cell viability (resazurin): Pancreatic, Mia-Paca-2; conditions: Mia-Paca-2 (Pancreatic), 72 hours; labelled drug combined with Example 3
[7] = test system: Panc-1; assay: Cancer cell panel, cell viability (resazurin): Pancreatic, Panc-1; conditions: Panc-1 (Pancreatic), 72 hours; labelled drug combined with Example 3
[8] = test system: BxPC3; assay: Cancer cell panel, cell viability (resazurin): Pancreatic, BxPC3; conditions: 72 hours, labelled drug combined with Example 3
[9] = test system: HCT116; assay: Cancer cell panel, cell viability (resazurin): Colon, HCT116; conditions: 72 hours, labelled drug combined with Example 3
[10] = test system: Colo205; assay: Cancer cell panel, cell viability (resazurin): Colon, Colo205; conditions: 72 hours, labelled drug combined with Example 3
[11] = test system: LoVo; assay: Cancer cell panel, cell viability (resazurin): Colon, LoVo; conditions: 72 hours, labelled drug combined with Example 3
[12] = test system: DLD-1; assay: Cancer cell panel, cell viability (resazurin): Colon, DLD-1; conditions: DLD-1 (Colon), 72 hours; labelled drug combined with Example 3
[13] = test system: H1299; assay: Cancer cell panel, cell viability (resazurin): NSCLC, H1299; conditions: 72 hours, labelled drug combined with Example 3
[14] = test system: A549; assay: Cancer cell panel, cell viability (resazurin): NSCLC, A549; conditions: 72 hours, labelled drug combined with Example 3
[15] = test system: H460; assay: Cancer cell panel, cell viability (resazurin): NSCLC, H460; conditions: 72 hours, labelled drug combined with Example 3
[16] = test system: H1975; assay: Cancer cell panel, cell viability (resazurin): NSCLC, H1975; conditions: 72 hours, labelled drug combined with Example 3
[17] = test system: H23; assay: Cancer cell panel, cell viability (resazurin): NSCLC, H23; conditions: 72 hours, labelled drug combined with Example 3
[18] = test system: H2122; assay: Cancer cell panel, cell viability (resazurin): NSCLC, H2122; conditions: 72 hours, labelled drug combined with Example 3
[19] = test system: SkBr-3; assay: Cancer cell panel, cell viability (resazurin): Breast, SkBr-3; conditions: SkBr-3 (Breast), 72 hours; labelled drug combined with Example 3
[20] = test system: MDA-MB-453; assay: Cancer cell panel, cell viability (resazurin): Breast, MDA-MB-453; conditions: MDA-MB-453 (Breast), 72 hours; labelled drug combined with Example 3
[21] = test system: MDA-MB-231; assay: Cancer cell panel, cell viability (resazurin): Breast, MDA-MB-231; conditions: MDA-MB-231 (Breast), 72 hours; labelled drug combined with Example 3
[22] = test system: MDA-MB-157; assay: Cancer cell panel, cell viability (resazurin): Breast, MDA-MB-157; conditions: MDA-MB-157 (Breast), 72 hours; labelled drug combined with Example 3
[23] = test system: BT-20; assay: Cancer cell panel, cell viability (resazurin): Breast, BT-20; conditions: BT-20 (Breast), 72 hours; labelled drug combined with Example 3

`Nc1ccn([C@@H]2O[C@H](CO)[C@@H](O)C2(F)F)c(=O)n1` [Gemcitabine, gemcitabine] was tested, and the “synergy, additivity or antagonism of the combination of Example 3 with the anti-cancer drug” value (“synergy, additivity or antagonism” below) [1] was “+ (Additive relative to each agent alone (CI = 0.9-1 by Bliss Independence Model and <0.9 by Highest Single Agent Model))”, the “synergy, additivity or antagonism” value [2] was “+ (Additive relative to each agent alone (CI = 0.9-1 by Bliss Independence Model and <0.9 by Highest Single Agent Model))” and the “synergy, additivity or antagonism” value [3] was “+ + (Slight synergy relative to each agent alone (CI = 0.75-0.9 by Bliss Independence Model))”. For the same compound, the “synergy, additivity or antagonism” value [4] was “+ + + (Synergy relative to each agent alone (CI = 0.4-0.74 by Bliss Independence Model))”, the “synergy, additivity or antagonism” value [5] was “+ (Additive relative to each agent alone (CI = 0.9-1 by Bliss Independence Model and <0.9 by Highest Single Agent Model))” and the “synergy, additivity or antagonism” value [6] was “+ + (Slight synergy relative to each agent alone (CI = 0.75-0.9 by Bliss Independence Model))”. The “synergy, additivity or antagonism” value [7] was “+ (Additive relative to each agent alone (CI = 0.9-1 by Bliss Independence Model and <0.9 by Highest Single Agent Model))”, the “synergy, additivity or antagonism” value [8] was “+ + + (Synergy relative to each agent alone (CI = 0.4-0.74 by Bliss Independence Model))” and the “synergy, additivity or antagonism” value [9] was “+ (Additive relative to each agent alone (CI = 0.9-1 by Bliss Independence Model and <0.9 by Highest Single Agent Model))”. For the same compound, the “synergy, additivity or antagonism” value [10] was “+ (Additive relative to each agent alone (CI = 0.9-1 by Bliss Independence Model and <0.9 by Highest Single Agent Model))”, the “synergy, additivity or antagonism” value [11] was “+ (Additive relative to each agent alone (CI = 0.9-1 by Bliss Independence Model and <0.9 by Highest Single Agent Model))” and the “synergy, additivity or antagonism” value [12] was “+ (Additive relative to each agent alone (CI = 0.9-1 by Bliss Independence Model and <0.9 by Highest Single Agent Model))”. For the same compound, the “synergy, additivity or antagonism” value [13] was “+ (Additive relative to each agent alone (CI = 0.9-1 by Bliss Independence Model and <0.9 by Highest Single Agent Model))”, the “synergy, additivity or antagonism” value [14] was “+ + + + (Strong synergy relative to each agent alone (CI < 0.4 by Bliss Independence Model))” and the “synergy, additivity or antagonism” value [15] was “+ + (Slight synergy relative to each agent alone (CI = 0.75-0.9 by Bliss Independence Model))”. For the same compound, the “synergy, additivity or antagonism” value [16] was “+ (Additive relative to each agent alone (CI = 0.9-1 by Bliss Independence Model and <0.9 by Highest Single Agent Model))”, the “synergy, additivity or antagonism” value [17] was “+ (Additive relative to each agent alone (CI = 0.9-1 by Bliss Independence Model and <0.9 by Highest Single Agent Model))” and the “synergy, additivity or antagonism” value [18] was “+ + (Slight synergy relative to each agent alone (CI = 0.75-0.9 by Bliss Independence Model))”. For the same compound, the “synergy, additivity or antagonism” value [19] was “+ (Additive relative to each agent alone (CI = 0.9-1 by Bliss Independence Model and <0.9 by Highest Single Agent Model))”, the “synergy, additivity or antagonism” value [20] was “+ + (Slight synergy relative to each agent alone (CI = 0.75-0.9 by Bliss Independence Model))” and the “synergy, additivity or antagonism” value [21] was “+ + (Slight synergy relative to each agent alone (CI = 0.75-0.9 by Bliss Independence Model))”. The “synergy, additivity or antagonism” value [22] was “+ + (Slight synergy relative to each agent alone (CI = 0.75-0.9 by Bliss Independence Model))” and the “synergy, additivity or antagonism” value [23] was “+ (Additive relative to each agent alone (CI = 0.9-1 by Bliss Independence Model and <0.9 by Highest Single Agent Model))”.
